Reference: US12365667B2, “Sulfone pyridine alkyl amide-substituted heteroaryl compounds” (BRISTOL-MYERS SQUIBB COMPANY, priority 2017, dated 2025)

The compounds below were run on IFNα-induced STAT phosphorylation (pSTAT5) in human whole blood (assay: IFNα-Induced STAT Phosphorylation in Human Whole Blood). Conditions: 1 h incubation with compound, 1000 U/mL recombinant human IFNα A/D for 15 min, pSTAT5 in CD3 positive population, read-out: IFNα-Induced Stat Phosph. (IC50).
Format: cell-based
Experimental: IFNα-Induced STAT Phosphorylation in Human Whole Blood
After an hour long incubation with compound, human whole blood (drawn with either EDTA or ACD-A as anti-coagulant) was stimulated with 1000 U/mL recombinant human IFNα A/D (R&D Systems 11200-2) for 15 min. The stimulation was stopped by adding Fix/Lyse buffer (BD 558049). Cells were stained with a CD3 FITC antibody (BD 555916), washed, and permeabilized on ice using Perm III buffer (BD 558050). Cells were then stained with an Alexa-Fluor 647 pSTAT5 (pY694) antibody (BD 612599) for 30 min prior to analysis on the FACS Canto II. The amount of pSTAT5 expression was quantitated by median fluorescence intensity after gating on the CD3 positive population.

| SMILES | IC50 [nM] |
| --- | --- |
| CCOC(=O)NC(C)(C)c1ccc(Nc2cc(Nc3ncccc3S(C)(=O)=O)c(C(=O)NC)nn2)nc1 [Example 79] | 24 |
| CNC(=O)c1nnc(Nc2cnc(OC)cn2)cc1Nc1ncccc1S(C)(=O)=O [Example 80] | 57 |
| CNC(=O)c1nnc(Nc2ccc(N3CCOCC3)cn2)cc1Nc1ncccc1S(C)(=O)=O [Example 81] | 3 |
| CNC(=O)c1nnc(Nc2cccc(C)n2)cc1Nc1ncccc1S(C)(=O)=O [Example 82] | 37 |
| CCOc1ccc(Nc2cc(Nc3ncccc3S(C)(=O)=O)c(C(=O)NC)nn2)nn1 [Example 83] | 76 |
| CNC(=O)c1nnc(Nc2cc(COC)ncn2)cc1Nc1ncccc1S(C)(=O)=O [Example 84] | 42 |
| CNC(=O)c1nnc(Nc2ccc(C)nn2)cc1Nc1ncccc1S(C)(=O)=O [Example 85] | 11 |
| CNC(=O)c1nnc(Nc2ccc(F)nn2)cc1Nc1ncccc1S(C)(=O)=O [Example 86] | 40 |
| CNC(=O)c1nnc(Nc2cc(F)c(F)cn2)cc1Nc1ncccc1S(C)(=O)=O [Example 87] | 417 |
| CNC(=O)c1nnc(Nc2cc(C(F)(F)F)n(C)n2)cc1Nc1ncccc1S(C)(=O)=O [Example 88] | 47 |
| CNC(=O)c1nnc(Nc2ccc(-n3cc(Cl)ccc3=O)cn2)cc1Nc1ncccc1S(C)(=O)=O [Example 89] | 32 |
| CNC(=O)c1nnc(Nc2ccc(Cl)nn2)cc1Nc1ncccc1S(C)(=O)=O [Example 90] | 13 |
| CNC(=O)c1nnc(Nc2ccc(C(F)(F)F)cn2)cc1Nc1ncccc1S(C)(=O)=O [Example 91] | 43 |
| CNC(=O)c1nnc(Nc2ccc(-n3cccc(C(F)(F)F)c3=O)cn2)cc1Nc1ncccc1S(C)(=O)=O [Example 92] | 13 |
| CNC(=O)c1nnc(Nc2cnc(C)cn2)cc1Nc1ncccc1S(C)(=O)=O [Example 93] | 28 |
| CNC(=O)c1nnc(Nc2cnc(C(F)(F)F)cn2)cc1Nc1ncccc1S(C)(=O)=O [Example 95] | 133 |
| CNC(=O)c1nnc(Nc2cc(COC)ccn2)cc1Nc1ncccc1S(C)(=O)=O [Example 96] | 4 |
| CNC(=O)c1nnc(Nc2ccc(N3CCOCC3=O)cn2)cc1Nc1ncccc1S(C)(=O)=O [Example 97] | 13 |
| CNC(=O)c1nnc(Nc2cc(C)nc(C)n2)cc1Nc1ncccc1S(C)(=O)=O [Example 98] | 49 |
| CNC(=O)c1nnc(Nc2cnc3c(n2)CCCCC3)cc1Nc1ncccc1S(C)(=O)=O [Example 99] | 44 |
| CNC(=O)c1nnc(Nc2ccc(N3CC(C)OC(C)C3)cn2)cc1Nc1ncccc1S(C)(=O)=O (stereo not drawn) [Example 100] | 15 |
| CNC(=O)c1nnc(Nc2cc(COC)ncn2)cc1Nc1ncccc1S(C)(=O)=O [Example 101] | 95 |

| SMILES | IC50 [nM] |
| --- | --- |
| CNC(=O)c1nnc(Nc2ccc(-c3ccccc3)cn2)cc1Nc1ncccc1S(C)(=O)=O [Example 102] | 138 |
| CNC(=O)c1nnc(Nc2ccc(N3CCOCC3C)cn2)cc1Nc1ncccc1S(C)(=O)=O (stereo not drawn) [Example 103] | 16 |
| CNC(=O)c1nnc(Nc2ccc(-c3c(F)cccc3F)nn2)cc1Nc1ncccc1S(C)(=O)=O [Example 104] | 46 |
| CNC(=O)c1nnc(Nc2ccc(N3CCOC(C)(C)C3)cn2)cc1Nc1ncccc1S(C)(=O)=O [Example 105] | 9 |
| CNC(=O)c1nnc(Nc2ccc(-c3ccccc3)nn2)cc1Nc1ncccc1S(C)(=O)=O [Example 106] | 124 |
| CCOC(=O)N1CCN(c2ccc(Nc3cc(Nc4ncccc4S(C)(=O)=O)c(C(=O)NC)nn3)nc2)CC1 [Example 107] | 13 |
| CCCC(=O)Nc1cc(Nc2ncccc2S(C)(=O)=O)c(C(=O)NC)nn1 [Example 108] | 167 |
| CNC(=O)c1nnc(Nc2ccc(N3CCOCC3)nn2)cc1Nc1ncccc1S(C)(=O)=O [Example 110] | 20 |
| CNC(=O)c1nnc(Nc2ccnc(-c3ccccc3)n2)cc1Nc1ncccc1S(C)(=O)=O [Example 111] | 248 |
| CNC(=O)c1nnc(NC(=O)OC)cc1Nc1ncccc1S(C)(=O)=O [Example 112] | 142 |
| CNC(=O)c1nnc(Nc2cccc(C(F)(F)F)n2)cc1Nc1ncccc1S(C)(=O)=O [Example 113] | 88 |
| CNC(=O)c1nnc(Nc2cncc(-c3ccccc3)n2)cc1Nc1ncccc1S(C)(=O)=O [Example 115] | 190 |
| CNC(=O)c1nnc(Nc2cccc(-c3ccccc3)n2)cc1Nc1ncccc1S(C)(=O)=O [Example 117] | 334 |
| CNC(=O)c1nnc(NC(=O)CCOC)cc1Nc1ncccc1S(C)(=O)=O [Example 118] | 131 |
| CCCCC(=O)Nc1cc(Nc2ncccc2S(C)(=O)=O)c(C(=O)NC)nn1 [Example 119] | 73 |
| CNC(=O)c1nnc(NC(=O)C=C(C)C)cc1Nc1ncccc1S(C)(=O)=O [Example 120] | 62 |
| CCNC(=O)Nc1cc(Nc2ncccc2S(C)(=O)=O)c(C(=O)NC)nn1 [Example 121] | 39 |
| CNC(=O)c1nnc(NC(=O)NC(C)(C)C)cc1Nc1ncccc1S(C)(=O)=O [Example 122] | 156 |
| CNC(=O)c1nnc(NC(=O)C=C2CCOCC2)cc1Nc1ncccc1S(C)(=O)=O [Example 123] | 183 |
| CNC(=O)c1nnc(Nc2cncc(C(F)(F)F)n2)cc1Nc1ncccc1S(C)(=O)=O [Example 127] | 302 |
| CNC(=O)c1nnc(NC(=O)C=C2CCCCC2)cc1Nc1ncccc1S(C)(=O)=O [Example 128] | 61 |
| CNC(=O)c1nnc(NC(=O)CC(C)C)cc1Nc1ncccc1S(C)(=O)=O [Example 129] | 80 |

| SMILES | IC50 [nM] |
| --- | --- |
| CNC(=O)c1nnc(NC(=O)C(C)C)cc1Nc1ncccc1S(C)(=O)=O [Example 131] | 434 |
| CCOC(=O)Nc1cc(Nc2ncccc2S(C)(=O)=O)c(C(=O)NC)nn1 [Example 132] | 209 |
| CNC(=O)c1nnc(NC(=O)COCc2ccccc2)cc1Nc1ncccc1S(C)(=O)=O [Example 133] | 1570 |
| CNC(=O)c1nnc(NC(=O)OC(C)C)cc1Nc1ncccc1S(C)(=O)=O [Example 134] | 296 |
| CCCOC(=O)Nc1cc(Nc2ncccc2S(C)(=O)=O)c(C(=O)NC)nn1 [Example 136] | 349 |
| CNC(=O)c1nnc(Nc2ccnc(C(F)(F)F)n2)cc1Nc1ncccc1S(C)(=O)=O [Example 138] | 447 |
| CNC(=O)c1nnc(NC(=O)CC(C)(C)C)cc1Nc1ncccc1S(C)(=O)=O [Example 139] | 893 |
| CNC(=O)c1nnc(Nc2ccc(OC(F)(F)F)cn2)cc1Nc1ncccc1S(C)(=O)=O [Example 140] | 34 |
| CCC(O)(CC)c1cnc(Nc2cc(Nc3ncccc3S(C)(=O)=O)c(C(=O)NC)nn2)cc1Cl [Example 147] | 231 |
| CCOc1cc(Nc2cc(Nc3ncccc3S(C)(=O)=O)c(C(=O)NC)nn2)ncc1C(=O)NC1CC1 [Example 148] | 408 |
| CCOc1cc(Nc2cc(Nc3ncccc3S(C)(=O)=O)c(C(=O)NC)nn2)ncc1C(C)(C)O [Example 149] | 141 |
| CNC(=O)c1nnc(Nc2ccc(C(C)(C)O)c(F)n2)cc1Nc1ncccc1S(C)(=O)=O [Example 151] | 2 |
| CNC(=O)c1nnc(Nc2cccc(C3CC3)n2)cc1Nc1ncccc1S(C)(=O)=O [Example 152] | 40 |
| CNC(=O)c1nnc(Nc2ccc(COC)cn2)cc1Nc1ncccc1S(C)(=O)=O [Example 154] | 6 |
| CNC(=O)c1nnc(Nc2cc(COC)ccn2)cc1Nc1ncccc1S(C)(=O)=O [Example 156] | 7 |
| CNC(=O)c1nnc(Nc2ccc(C(C)(C)OC)cn2)cc1Nc1ncccc1S(C)(=O)=O [Example 157] | 21 |
| CNC(=O)c1nnc(Nc2ccc(OCCOC)cn2)cc1Nc1ncccc1S(C)(=O)=O [Example 158] | 10 |
| CNC(=O)c1nnc(Nc2ccccn2)cc1Nc1ncccc1S(C)(=O)=O [Example 160] | 11 |
| CNC(=O)c1nnc(Nc2cc(Cl)n(C)n2)cc1Nc1ncccc1S(C)(=O)=O [Example 161] | 47 |
| CNC(=O)c1nnc(NC(=O)CC2CC2)cc1Nc1ncccc1S(C)(=O)=O [Example 164] | 88 |
| CNC(=O)c1nnc(Nc2cc(C3CC3)nc(C)n2)cc1Nc1ncccc1S(C)(=O)=O [Example 165] | 23 |
| CNC(=O)c1nnc(Nc2ccn(C3CC3)n2)cc1Nc1ncccc1S(C)(=O)=O [Example 167] | 60 |

Same assay, conditions: Homo sapiens, 1 h incubation with compound, 1000 U/mL recombinant human IFNα A/D for 15 min, pSTAT5 in CD3 positive population, read-out: IFNα-Induced Stat Phosph. (IC50)

| SMILES | IC50 [nM] |
| --- | --- |
| [2H]C([2H])([2H])NC(=O)c1nnc(NC(=O)C2CC2)cc1Nc1ncccc1S(C)(=O)=O [Example 159, 6-(cyclopropanecarboxamido)-N-trideuteromethyl-4-((3-(methylsulfonyl)pyridin-2-yl)amino)pyridazine-3-carboxamide] | 12 |
| [2H]C([2H])([2H])NC(=O)c1nnc(NC(C)=O)cc1Nc1ncccc1S(C)(=O)=O [Example 163, 6-acetamido-N-trideuteromethyl-4-((3-(methylsulfonyl)pyridin-2-yl)amino)pyridazine-3-carboxamide] | 95 |
| [2H]C([2H])([2H])NC(=O)c1nnc(Nc2ccn(C)n2)cc1Nc1ncccc1S(C)(=O)=O [Example 166, N-trideuteromethyl-6-((1-methyl-1H-pyrazol-3-yl)amino)-4-((3-(methylsulfonyl)pyridin-2-yl)amino)pyridazine-3-carboxamide] | 40 |
